Assay results reported in PMC3723409 (Basic & clinical pharmacology & toxicology, 2009).
Read-outs that look alike come from different tables or passages of the source.

Experiments:
[1] = in vivo interaction with buprenorphine; cited from earlier work
[2] = human, in vivo
[3] = with lopinavir/ritonavir; cited from earlier work

Row | SMILES | Effect on pharmacokinetics / metabolism of buprenorphine [1] | also measured
1 | CC(C)Nc1cccnc1N1CCN(C(=O)c2cc3cc(NS(C)(=O)=O)ccc3[nH]2)CC1 [delavirdine] | inhibition of buprenorphine metabolism | 
2 | Cc1c(O)cccc1C(=O)N[C@@H](CSc1ccccc1)[C@H](O)CN1C[C@H]2CCCC[C@H]2C[C@H]1C(=O)NC(C)(C)C [nelfinavir] | neither nelfinavir nor the combination of lopinavir/ritonavir had any significant effect | 
3 | CO[C@]12CC[C@@]3(C[C@@H]1[C@](C)(O)C(C)(C)C)[C@H]1Cc4ccc(O[C@@H]5O[C@H](C(=O)O)[C@@H](O)[C@H](O)[C@H]5O)c5c4[C@@]3(CCN1CC1CC1)[C@H]2O5 [B3G, buprenorphine-3-glucuronide] |  | Change in renal clearance [2]: No significant changes
4 | CC(C)c1nc(CN(C)C(=O)N[C@H](C(=O)N[C@@H](Cc2ccccc2)C[C@H](O)[C@H](Cc2ccccc2)NC(=O)OCc2cncs2)C(C)C)cs1 [ritonavir] | increased exposure to buprenorphine | 
5 | O=C1Nc2ccc(Cl)cc2[C@@](C#CC2CC2)(C(F)(F)F)O1 [efavirenz] | induction | 
6 | C[C@H](Cn1cnc2c(N)ncnc21)OCP(=O)(O)O [tenofovir] |  | Change in renal clearance [3]: decrease
